From patent US20080207728A1, “BICYCLIC ACYLTRYPTOPHANOLS” (priority 2006, published 2008) come the findings set out here.

The assay has as its target T1, human FSH receptor (Homo sapiens, UniProt P23945).
T1 construct: expressed in transfected cells; host or cells: CHO cells (hFSHR clone 16)
T1 sequence (P23945 18-695): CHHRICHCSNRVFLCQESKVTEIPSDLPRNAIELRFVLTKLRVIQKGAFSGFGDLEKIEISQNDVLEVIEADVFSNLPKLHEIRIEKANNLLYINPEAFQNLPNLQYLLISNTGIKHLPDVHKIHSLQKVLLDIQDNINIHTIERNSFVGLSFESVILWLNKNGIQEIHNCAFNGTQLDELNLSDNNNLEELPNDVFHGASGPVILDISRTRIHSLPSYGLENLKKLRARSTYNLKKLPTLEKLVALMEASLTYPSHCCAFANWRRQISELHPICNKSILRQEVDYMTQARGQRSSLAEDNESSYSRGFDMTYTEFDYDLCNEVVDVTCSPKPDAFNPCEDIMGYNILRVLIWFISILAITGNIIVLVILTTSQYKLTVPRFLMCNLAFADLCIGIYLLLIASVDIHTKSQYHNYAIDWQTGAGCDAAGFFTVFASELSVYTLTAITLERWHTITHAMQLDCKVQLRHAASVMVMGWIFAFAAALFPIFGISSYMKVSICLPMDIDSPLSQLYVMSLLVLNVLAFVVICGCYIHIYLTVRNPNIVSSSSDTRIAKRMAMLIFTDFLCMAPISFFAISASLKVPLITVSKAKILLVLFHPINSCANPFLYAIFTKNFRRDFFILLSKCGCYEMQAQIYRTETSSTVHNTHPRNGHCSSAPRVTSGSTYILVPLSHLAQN
Nature of the assay: HTRF assay for measuring cAMP in cells (FSH antagonism). The assay is classed as cell-based. Particulars: Table 2; hFSHR clone 16 cells (CHO cells stably transfected with the human FSH receptor), in the presence of 1e-9 mol/l hFSH, 37° C. for 2 h; read-out: IC50 (FSH-antagonistic effect in the HTRF assay). The protocol: HTRF Assay for Measuring cAMP in Cells
The method is based on a competitive immunoassay between native cAMP, which has been produced by the cells, and cAMP which is labelled with XL665. The tracer binding was visualized by a monoclonal antibody, anti-cAMP labelled with cryptate [HTRF=homogeneous time-resolved fluorescence].
The specific signal is inversely proportional to the cAMP concentration of the samples employed.
The 665 nm/620 nm fluorescence ratio was evaluated.
The following material was used: 96-well plates for the tissue culture, 96-well plates with black edge and black base (e.g. Fluotrac 600 from Greiner), 96-well plates for the substance dilutions of polypropylene and cAMP Femtomolar (4000 wells Kit, CIS Bio International # 62AM1PEC).
The following reagents were used: BSA (bovine serum albumin) Fraction V protease-free, IBMX (3-isobutyl-1-methylxanthine), hFSH (human follicle stimulating hormone), Triton X-100 analytical grade, potassium fluoride analytical grade, G 418 (Geneticin) and Accutase.
Buffer 1 (washing and testing buffer) contained PBS, 1 mM CaCl2, 1 mM MgCl2, 0.2% glucose; 0.1% BSA, 1 mM IBMX.
Buffer 2 (2× lysis buffer) contained 1% Triton X-100 in PBS (without CaCl2 and MgCl2).
Buffer 3 (assay buffer) contained 50 mM potassium phosphate buffer (pH 7.0); 800 mM potassium fluoride; 0.2% BSA (always added fresh).
On day 1, the cells were seeded in 96-well plates (3×10^4 cells per well hFSHR clone 16 cells (CHO cells stably transfected with the human FSH receptor in 150 μl of medium).
The next day, test substance dilutions were made up. For this purpose, all the substances were diluted in ice-cold buffer 1 (with or without hFSH), and the substance dilutions were placed on ice until applied to the cells.
The cell supernatant was then aspirated off, and the cells were washed 2× with 200 μl of buffer 1. The cells were treated with 60 μl of the appropriate substance concentrations at 37° C. for 2 h. The cells were then lysed with 60 μl of buffer 2 (put onto the supernatant) (on a plate shaker at RT for 30 min).
The test conjugates (XL-665 and anti-cAMP cryptate) were diluted in buffer 3 in accordance with the manufacturers' information. The actual mixture for measurement was pipetted into a black 96-well plate (in each case 15 μl of the cell lysate diluted with 35 μl of buffer 1; firstly 25 μl of XL-665 conjugate were pipetted and, after 10 min, 25 μl of the anti-cAMP cryptate were added). This is followed by incubation at RT for 90 minutes. The measurement was carried out in a PheraStar (BMG).
Tissue Culture Conditions
Dose-effect curve (hFSH) for the human receptor: 1e-8, 3e-9, 1 e-9, 3e-10, 1 e-10, 3e-11, 1e-11, 3e-12 mol/l.
The test substances were employed in suitable dilutions in the absence (test for agonism) and in the presence of 1e-9 mol/l hFSH.
The values of the well ratio were averaged and then entered directly in SigmaPlot versus the concentrations. The maximum and minimum values were determined for each plate, and half the difference is to be regarded as IC50.
(In general: Time-resolved FRET reads energy transfer from a long-lived donor to a nearby acceptor.)

A word on the IC50: it is the concentration that inhibits the measured activity by half.

SMILES strings stand for the structures.

As to `N#Cc1cc(-c2cc3c(c(C(=O)N[C@@H](CO)Cc4c[nH]c5ccccc45)c2)OCCO3)ccc1F` [Example 104, 7-(3-Cyano-4-fluoro-phenyl)-2,3-dihydro-benzo[1,4]dioxine-5-carboxylic acid [(R)-1-hydroxymethyl-2-(1H-indol-3-yl)-ethyl]-amide], the IC50 amounted to 1000 nM. In the case of `COc1ccc(-c2cc3c(c(C(=O)N[C@@H](CO)Cc4c[nH]c5ccccc45)c2)OCCO3)cc1F` [Example 109, 7-(3-Fluoro-4-methoxy-phenyl)-2,3-dihydro-benzo[1,4]dioxine-5-carboxylic acid [(R)-1-hydroxymethyl-2-(1H-indol-3-yl)-ethyl]-amide] it was 950 nM; in that of `CS(=O)(=O)c1cccc(-c2cc3c(c(C(=O)N[C@@H](CO)Cc4c[nH]c5ccccc45)c2)OCCO3)c1` [Example 116, 7-(3-Methanesulfonyl-phenyl)-2,3-dihydro-benzo[1,4]dioxine-5-carboxylic acid [(R)-1-hydroxymethyl-2-(1H-indol-3-yl)-ethyl]-amide], 2000 nM; in that of `COC(=O)c1ccc(-c2cc3c(c(C(=O)N[C@@H](CO)Cc4c[nH]c5ccccc45)c2)OCCO3)cc1OC` [Example 118, 4-{8-[(R)-1-Hydroxymethyl-2-(1H-indol-3-yl)-ethylcarbamoyl]-2,3-dihydro-benzo[1,4]dioxin-6-yl}-2-methoxy-benzoic acid methyl ester], 130 nM.

Consider `CN(C)S(=O)(=O)c1ccc(-c2cc3c(c(C(=O)N[C@@H](CO)Cc4c[nH]c5ccccc45)c2)OCCO3)cc1` [Example 123, 7-(4-Dimethylsulfamoyl-phenyl)-2,3-dihydro-benzo[1,4]dioxine-5-carboxylic acid [(R)-1-hydroxymethyl-2-(1H-indol-3-yl)-ethyl]-amide], for which the IC50 came to 2000 nM. In the case of `O=C(N[C@@H](CO)Cc1c[nH]c2ccccc12)c1cc(-c2cccc(Cl)c2)cc2c1OCCO2` [Example 130, 7-(3-Chloro-phenyl)-2,3-dihydro-benzo[1,4]dioxine-5-carboxylic acid [(R)-1-hydroxymethyl-2-(1H-indol-3-yl)-ethyl]-amide] it was 3000 nM; in that of `Nc1cccc(-c2cc3c(c(C(=O)N[C@@H](CO)Cc4c[nH]c5ccccc45)c2)OCCO3)c1` [Example 135, 7-(3-Amino-phenyl)-2,3-dihydro-benzo[1,4]dioxine-5-carboxylic acid [(R)-1-hydroxymethyl-2-(1H-indol-3-yl)-ethyl]-amide], 800 nM; in that of `CNC(=O)c1ccc(-c2cc3c(c(C(=O)N[C@@H](CO)Cc4c[nH]c5ccccc45)c2)OCCO3)cc1` [Example 142, 7-(4-Methylcarbamoyl-phenyl)-2,3-dihydro-benzo[1,4]dioxine-5-carboxylic acid [(R)-1-hydroxymethyl-2-(1H-indol-3-yl)-ethyl]-amide], 200 nM.

Consider `Cc1ccccc1-c1cc2c(c(C(=O)N[C@@H](CO)Cc3c[nH]c4ccccc34)c1)OCCO2` [Example 143, 7-o-Tolyl-2,3-dihydro-benzo[1,4]dioxine-5-carboxylic acid [(R)-1-hydroxymethyl-2-(1H-indol-3-yl)-ethyl]-amide], for which the IC50 was 9000 nM.

On to `CNC(=O)c1ccc(-c2cc3c(c(C(=O)NC(CO)Cc4c[nH]c5c(F)cc(F)cc45)c2)OC(C)(C)CC3)cc1Cl` (stereo not shown) [Example 190, 6-(3-Chloro-4-methylcarbamoyl-phenyl)-2,2-dimethyl-chroman-8-carboxylic acid [2-(5,7-difluoro-1H-indol-3-yl)-1-hydroxymethyl-ethyl]amide], for which the IC50 was determined as 70 nM.
